What was measured:
FcεRIγ = FcεRIγ expression in DR1 TCR tg cells; assay type: cell-based, mouse; settings: DR1 TCR tg cells cultured with peptide 48 hours; FIG. 6
Method: In FIG. 6 it is shown that A12 treatment increases […] expression. In the graph with axis 610 for the percentage of the maximum, axis 615 for the number of occurrences on a log scale, line 620 is for A2, line 625 is for media alone, and line 630 is for A12. Splenocytes from DR1 TCR transgenic mice were cultured for 48 hours in the presence of A12 (dark grey line), A2 (black line) or media alone (light grey line). […] The cells cultured with A2 peptide are no different than unstimulated controls.
Finally, we examined the expression of FcεRIγ, a molecule known to associate with the TCR complex. In some circumstances, the TCR is rewired so that the FcRgamma chain assumes the function of the zeta chain. Therefore, the DR1 TCR tg cells were cultured with either A12, or A2, or media alone and stained with an antibody specific for the gamma chain of the FcεRIγ molecule.

RA PBMC = assay: Stability of HC Peptide 1 stored at 4° C., tested on IFNγ production by RA PBMC; assay type: cell-based, human
Method: Approximately 70% of the patients screened should have one or more of the RA shared epitope alleles. If the trend we saw in the small preliminary data sample holds true for the larger sample size, the majority of APL A12 responders will have one or more of the shared epitopes. […] Each month we will prepare a fresh stock solution of APL A12 dissolved in PBS, filter sterilized and stored at 4° C. APL A12 stored at 4° C. in solution retains it biologic activity for >30 days. A fresh solution of α1(II) will also be prepared each month and stored at 4° C. and handled using sterile technique.
HC Peptide 1 was dissolved in phosphate buffered saline and stored at 4° C. for up to five months and then tested and compared in vitro with freshly prepared HC Peptide 1 to inhibit IFNγ production by RA patients PBMC stimulated by α1(II).

LGPKGQTGEBGIAGAKGDQGPKGEBGPA [APL A12]
FcR gamma chain (FcεRIγ) expression (FcεRIγ): significant increase
IFNγ Concentration in PBMC Supernatants (RA PBMC; A12 0.1 μg/ml + PBS, A12 stored at 4° C. 6 Days): 26 pg/mL
IFNγ Concentration in PBMC Supernatants (RA PBMC; A12 0.1 μg/ml + PBS, A12 stored at 4° C. 78 Days): 0 pg/mL
IFNγ Concentration in PBMC Supernatants (RA PBMC; A12 0.1 μg/ml + PBS, A12 stored at 4° C. 143 Days): 0 pg/mL
IFNγ Concentration in PBMC Supernatants (RA PBMC; A12 0.1 μg/ml + α1(II) 50 μg/ml, A12 stored at 4° C. 6 Days): 45 pg/mL
IFNγ Concentration in PBMC Supernatants (RA PBMC; A12 0.1 μg/ml + α1(II) 50 μg/ml, A12 stored at 4° C. 78 Days): 10 pg/mL
IFNγ Concentration in PBMC Supernatants (RA PBMC; A12 0.1 μg/ml + α1(II) 50 μg/ml, A12 stored at 4° C. 143 Days): 22 pg/mL
IFNγ Concentration in PBMC Supernatants (RA PBMC; A12 1 μg/ml + PBS, A12 stored at 4° C. 6 Days): 10 pg/mL
IFNγ Concentration in PBMC Supernatants (RA PBMC; A12 1 μg/ml + PBS, A12 stored at 4° C. 78 Days): 0 pg/mL
IFNγ Concentration in PBMC Supernatants (RA PBMC; A12 1 μg/ml + PBS, A12 stored at 4° C. 143 Days): 0 pg/mL
IFNγ Concentration in PBMC Supernatants (RA PBMC; A12 1 μg/ml + α1(II) 50 μg/ml, A12 stored at 4° C. 6 Days): 23 pg/mL
IFNγ Concentration in PBMC Supernatants (RA PBMC; A12 1 μg/ml + α1(II) 50 μg/ml, A12 stored at 4° C. 78 Days): 37 pg/mL
IFNγ Concentration in PBMC Supernatants (RA PBMC; A12 1 μg/ml + α1(II) 50 μg/ml, A12 stored at 4° C. 143 Days): 6 pg/mL
IFNγ Concentration in PBMC Supernatants (RA PBMC; A12 10 μg/ml + PBS, A12 stored at 4° C. 6 Days): 0 pg/mL
IFNγ Concentration in PBMC Supernatants (RA PBMC; A12 10 μg/ml + PBS, A12 stored at 4° C. 78 Days): 0 pg/mL
IFNγ Concentration in PBMC Supernatants (RA PBMC; A12 10 μg/ml + PBS, A12 stored at 4° C. 143 Days): 0 pg/mL
IFNγ Concentration in PBMC Supernatants (RA PBMC; A12 10 μg/ml + α1(II) 50 μg/ml, A12 stored at 4° C. 6 Days): 77 pg/mL
IFNγ Concentration in PBMC Supernatants (RA PBMC; A12 10 μg/ml + α1(II) 50 μg/ml, A12 stored at 4° C. 78 Days): 82 pg/mL
IFNγ Concentration in PBMC Supernatants (RA PBMC; A12 10 μg/ml + α1(II) 50 μg/ml, A12 stored at 4° C. 143 Days): 21 pg/mL
stability: ability to inhibit IFNγ production by α1(II) stimulated RA PBMC after storage (RA PBMC; dissolved in phosphate buffered saline, stored at 4° C. for up to 5 months): retained its ability to inhibit IFNγ production
time for which biologic activity is retained (RA PBMC; stored at 4° C. in solution (PBS)): > 30 days

Reference: US9144595B2, “APLs for treating arthritis” (University of Tennessee Research Foundation, priority 2009, dated 2015)
